Values quoted from earlier work, collected in patent US20140294972A1, “Oral Suspension” (NOVA BIO-PHARMA TECHNOLOGIES LIMITED, priority 2011, published 2014).

Settings: neutral pH

water solubility: about 6.85 mg/mL
SMILES: Sc1ncnc2nc[nH]c12 [6-MP, 3,7-dihydropurine-6-thione]
